Assay results: ChEMBL document CHEMBL1777765, “Synthesis of 5-thiodidehydropyranylcytosine derivatives as potential anti-HIV agents” (2011)
Active and inactive are the calls of the source. The calls are words filed in the database; no cut-off is given here.

What was measured:
[1] = test system: Human immunodeficiency virus 1; test: Antiviral activity against HIV1 infected in human PBMC assessed as inhibition of viral replication at 1 to 1000 nM by p24 HIV antigen capture assay; format: functional, organism-based
[2] = test system: Human immunodeficiency virus 1; test: Antiviral activity against HIV1 infected in human PBMC assessed as inhibition of viral replication at 10 nM by p24 HIV antigen capture assay relative to control; format: functional
[3] = test system: Human immunodeficiency virus 1; test: Antiviral activity against HIV1 infected in human PBMC assessed as inhibition of viral replication at 100 nM by p24 HIV antigen capture assay relative to control; format: functional

Row | Structure (SMILES) | inhibition [1] | inhibition at 0.01 µM [2] | inhibition at 0.1 µM [3]
1 | Nc1ccn([C@H]2C=C[C@@H](CO)[C@H](CO)S2)c(=O)n1 | Active | – | –
2 | Nc1ccn([C@@H]2C=C[C@@H](CO)[C@H](CO)S2)c(=O)n1 (racemic) | – | 65% | 75%
3 | Nc1ccn([C@@H]2CS[C@H](CO)O2)c(=O)n1 [LAMIVUDINE] | – | 37% | –
